Data set [1] is described as follows: acute oral toxicity (LD-50). The settings on record: mouse, in vivo.
The test system of data set [2] is hypothermia induced by apomorphine. In words: inhibition of hypothermia induced by apomorphine (apomorphine test). The note with it: Mus musculus, po, 1 h, read-out: Hypothermia inhibition from Apo16: ED-50.
In the next data set the test system is blood pressure. The settings on record: in vivo.
Another data set concerns motor activity. The note with it: in vivo.
A further data set deals with convulsions. The note with it: in vivo.
A further data set deals with anticholinergic effect. The note with it: in vivo.
The subject of the next data set is cardio-toxic. The note with it: in vivo.
The next data set relates to duodenal ulcers. In words: effect on duodenal ulcers. The settings on record: in vivo.
[3] abbreviates: Swiss male mice, after 14 days, read-out: LD-50.

Where two headings read alike, the source gives them in different places.

As to `CNCC(=O)N1c2ccccc2N(C)S(=O)(=O)c2ccccc21` [Compound 2], the LD50 at 336 h in data set [1] (setting [3]) is 750 to 1000 mg/kg. The ED50 in data set [2] is 4 to 15 mg/kg.

In the case of `CCN(CC)CC(=O)N1c2ccccc2N(C)S(=O)(=O)c2ccccc21` [Compound 3, 6-Methyl-6,11-dihydro-11-(N,N-diethylamino-acetyl)dibenzo[c,f][1,2,5]thiadiazepine 5,5-dioxide], the LD50 at 336 h in data set [1] (setting [3]) is above 2000 mg/kg. Further, the ED50 in data set [2] lay within 15 to 25 mg/kg.

As to `Cc1ccc2c(c1)N(C(=O)CN(C)C)c1ccccc1S(=O)(=O)N2C` [Compound 6, 6,9-dimethyl-6,11-dihydro-11-(N,N-dimethylaminoacetyl)-dibenzo[c,f][1,2,5]thiadiazepine 5,5-dioxide], the LD50 at 336 h in data set [1] (setting [3]) was in the range of 1500 to 2000 mg/kg. Also, the ED50 in data set [2] was in the range of 4 to 15 mg/kg.

In the case of `CN(C)CCCN1c2ccccc2N(C)S(=O)(=O)c2ccccc21` [reference compound], the blood pressure entry in the data set on blood pressure is listed as “increases the blood pressure”. The motor activity entry in the data set with motor activity was “increases the motor activity”. Further, in data set [1] (mice, read-out: oral LD-50), the LD50 at 336 h worked out at 655 mg/kg. In the data set with convulsions, the convulsions entry is on record as “induces convulsions”. Besides, the anticholinergic effect result in the data set on anticholinergic effect was “possesses anticholinergic effect”.

Turning to `CN(C)CCCN1c2ccccc2CCc2ccccc21` [imipramine, reference compound], the ED50 in data set [2] lay within 4 to 15 mg/kg.

On to `CN(C)CC(=O)N1c2ccc(Cl)cc2N(C)S(=O)(=O)c2ccccc21` [Compound 5, 8-chloro-6-methyl-6,11-dihydro-11-(N,N-dimethylamino-acethyl)-dibenzo[c,f][1,2,5]thiadiazepine 5,5-dioxide], for which the LD50 at 336 h in data set [1] (setting [3]) lay in the range of 1000 to 1500 mg/kg. Moreover, in data set [2], the ED50 was 15 to 25 mg/kg.

Regarding `CN(C)CC(=O)N1c2ccccc2N(C)S(=O)(=O)c2ccccc21` [Compound 1, 6-Methyl-6,11-dihydro-11-(N,N-dimethylaminoacetyl)dibenzo[c,f][1,2,5]thiadiazepine 5,5-dioxide], the blood pressure result with blood pressure was “does not alter the blood pressure”. Besides, the motor activity entry in the data set on motor activity is on record as “does not alter the motor activity”. For the same compound, the cardio-toxicity result with cardio-toxic is listed as “is not cardio-toxic”. The LD50 at 336 h in data set [1] (setting [3]) was 1500 to 2000 mg/kg; in data set [1] (mice, read-out: oral LD-50), 1920 mg/kg. For the same compound, the convulsions entry in the data set on convulsions is on record as “does not induce convulsions”. Also, the ED50 in data set [2] lay within 4 to 15 mg/kg. In the data set on anticholinergic effect, the anticholinergic effect entry is listed as “induces very weak anticholinergic effects”. In addition, in the data set with duodenal ulcers, the duodenal ulcers entry is reported as “reduces duodenal ulcers”.

For `CN(C)CCC(=O)N1c2ccccc2N(C)S(=O)(=O)c2ccccc21.Cl` [Compound 4, 6-Methyl-6,11-dihydro-11-[3-(N,N-dimethylamino)propionyl]dibenzo[c,f][1,2,5]thiadiazepine 5,5-dioxide hydrochloride], the LD50 at 336 h in data set [1] (setting [3]) lay in the range of 500 to 700 mg/kg. The ED50 in data set [2] fell in the range of 15 to 25 mg/kg.

The values above are taken from patent US5011833A, “Novel derivatives of 6,11-dihydro-dibenzo(C,F)(1,2,5)-thiadiazepine 5,5-dioxide, salts thereof and appropriate processes for the preparation thereof” (A. Menarini Industrie Farmaceutiche Riunite, priority 1988, dated 1991).
